Results on 30 compounds are retold here after EP1229025A1, “NOVEL QUINAZOLINE DERIVATIVES” (Japan Energy Corporation, priority 1999, dated 2001).

The assay deals with TNF-α production. Kind of assay: TNF-α production inhibiting test using human PBMC (LPS stimulus, ELISA). The class given is cell-based. As to conditions: LPS 10 ng/ml, 16 hours, ELISA of culture supernatants. The protocol: Example 145: TNF-α production inhibiting test using human PBMC (peripheral blood mononuclear cells)
Preparation of human PBMC
The blood of a healthy person was taken with a vacuum blood-collecting tube (Nipro neotube) and diluted up to two-fold with physiological saline (Otsuka Pharmaceuticals). To the diluted blood was added 6% dextran T-500 (prepared after dissolution in physiological saline (Otsuka Pharmaceuticals) and sterilization with an autoclave) so as to make a final concentration of 1%. The solution was subjected to tumble mixing and allowed to stand at room temperature for 30 minutes to precipitate the erythrocytes. The supernatant was collected and subjected to centrifugation at 20 °C and at 1,500 rpm for 10 minutes. The cells were suspended in 3 ml of RPMI1640 culture medium (Asahi Technogllas) and overlaid on the solution surface of 3 ml Lymphoprep (NYCOMED). Further, with 1.5 ml of RPMI1640 culture medium being added to the tube which had contained the cell suspension liquid, the cells attached to the tube, which had remained uncollected, were suspended for collection and overlaid on the Lymphoprep previously mentioned. This operation was repeated again. After centrifugation at 20 °C and at 2,000 rpm for 30 minutes, there was collected a fraction of peripheral blood mononuclear cells present in the boundary surface between the Lymphoprep and the RPMI1640 culture medium. The cells were washed twice with 10 ml RPMI1640 culture medium to remove the Lymphoprep and then suspended in a RPMI1640 culture medium added with 10% bovine fetal serum (IRVINE SCIENTIFIC), 100 U/ml penicillin and 100 µg/ml streptomycin (hereinafter referred to as cRPMI1640 culture medium). The number of the cells was measured by Tuerk dying, and the cells, after adjustment to 3 × 10^6 cells/ml, were planted in 100 µl/well on a 96-well plate (FALCON). The cells were cultured at 37 °C under 5%CO2 atmosphere for about 5 hours.
Induction of TNF-α production by LPS stimulus
LPS (E.coli 0111:B4, DIFCO), which had been prepared to 10 mg/ml with water and kept at -20, was diluted to 100 µg/ml with cRPMI1640 culture medium and subjected to sterile filtration. The 100 µg/ml LPS was diluted with cRPMI1640 culture medium to prepare 20 ng/ml LPS. A compound to be tested which was dissolved in DMSO at 1,000-fold concentration was diluted to 500-fold with cRPMI1640 culture medium containing 20 ng/ml LPS and added in 100 µl/well to the cells which had been planted on the previously mentioned 96-well plate (final concentration of LPS: 10 ng/ml). For use as the control group, the solutions were made by diluting DMSO of the same volume as in the test compounds with cRPMI1640 culture medium containing 20 ng/ml LPS, and they were added to the cells. These cells were cultured at 37 °C under 5%CO2 atmosphere for 16 hours.
Determination of TNF-α activity (ELISA method)
To the 96-well plate the mouse anti-human TNF-α antibody (prepared to 2 µg/ml with Coating buffer*^1) was added so as to make 100 µl/well and allowed to stand at 4 °C overnight. After 5-times washing with Wash buffer*^2 (300µl/well), the Blocking buffer*^3 was added to the solutions, which were allowed to stand 37 °C for 2 hours. The culture supernatants were diluted up to 5-fold in the plate (supernatant 20 µl being added to 80 µl of cRPMI1640 culture medium). Simultaneously, for using for a calibration curve, a series of dilution of recombinant human TNF-α was prepared arid allowed to stand 37 °C for 1 hour. After 5-times washing with Wash buffer (300 µl /well), biotinylated rabbit anti-human TNF-α antibody (prepared to 0.25 µg/ml with Antibody diluent*^4) was added so as to make 100 µl /well and allowed to stand at 37 °C for 1 hour. After 5-times washing with Wash buffer (300 µl /well), Streptavidin-Horseradish peroxidase(prepared to 1:4000 with Antibody diluent) was added to make 100 µl /well and allowed to stand at 37 °C for 15 minutes. […]
(In an ELISA, binding on a coated surface is turned into a signal by an enzyme label.)

A word on the IC50: it is the concentration needed to halve the response being measured. The low end stands for inhibition by little substance, the high end for a need for much substance.

`O=[N+]([O-])c1cc2c(NCc3ccc(Cl)cc3)ncnc2cc1N1CCNCC1` [Example 60, 4-(4-chlorobenzylamino)-6-nitro-7-(piperazin-1-yl)quinazoline]: the midpoint of inhibition, the IC50, lay at 600 nM.
Take `O=[N+]([O-])c1cc2c(NCc3ccc(C(F)(F)F)cc3)ncnc2cc1N1CCNCC1` [Example 63, 6-nitro-7-(piperazin-1-yl)-4-[4-(1,1,1-trifluoiomethyl)benzylamino]quinazoline]: the IC50 came out at 1600 nM.
With `Cc1ccc(CNc2ncnc3cc(N4CCNCC4)c([N+](=O)[O-])cc23)cc1` [Example 64, 4-(4-methylbenzylamino)-6-nitro-7-(piperazin-1-yl)quinazoline] the figure was 400 nM.
For the compound `COc1ccccc1CNc1ncnc2cc(N3CCNCC3)c([N+](=O)[O-])cc12` [Example 65, 4-(2-methoxylbenzylamino)-6-nitro-7-(piperazin-1-yl)quinazoline], the IC50 was 1200 nM.
With `COc1cccc(CNc2ncnc3cc(N4CCNCC4)c([N+](=O)[O-])cc23)c1` [Example 66, 4-(3-methoxylbenzylamino)-6-nitro-7-(piperazin-1-yl)quinazoline] the figure was 700 nM; with `COc1ccc(CNc2ncnc3cc(N4CCNCC4)c([N+](=O)[O-])cc23)cc1` [Example 67, 4-(4-methoxylbenzylamino)-6-nitro-7-(piperazin-1-yl)quinazoline], 300 nM.
As to `COc1ccc(CNc2ncnc3cc(N4CCNCC4)c([N+](=O)[O-])cc23)cc1OC` [Example 68, 4-(3,4-dimethoxylbenzylamino)-6-nitro-7-(piperazin-1-yl)quinazoline], the IC50 amounted to 2400 nM.
In the case of `COc1cc(CNc2ncnc3cc(N4CCNCC4)c([N+](=O)[O-])cc23)cc(OC)c1OC` [Example 69, 6-nitro-7-(piperazin-1-yl)-4-(3,4,5-trimethoxylbenzylamino)quinazoline] it was 1800 nM; in that of `O=[N+]([O-])c1cc2c(NCCc3ccccc3Cl)ncnc2cc1N1CCNCC1` [Example 70, 4-[2-(2-chlorophenyl)ethylamino]-6-nitro-7-(piperazin-1-yl)quinazoline], 600 nM.
Regarding `O=[N+]([O-])c1cc2c(NCCc3cccc(Cl)c3)ncnc2cc1N1CCNCC1` [Example 71, 4-[2-(3-chlorophenyl)ethylamino]-6-nitro-7-(piperazin-1-yl)quinazoline], the 50% inhibitory concentration (IC50) turned out to be 600 nM.
For `O=[N+]([O-])c1cc2c(NCCc3ccc(Br)cc3)ncnc2cc1N1CCNCC1` [Example 72, 4-[2-(4-bromophenyl)ethylamino]-6-nitro-7-(piperazin-1-yl)quinazoline], inhibition was half-maximal at 400 nM (IC50).
In the case of `Cc1ccc(CCNc2ncnc3cc(N4CCNCC4)c([N+](=O)[O-])cc23)cc1` [Example 75, 4-[2-(4-methylphenyl)ethylamino]-6-nitro-7-(piperazin-1-yl)quinazoline] it was 1900 nM; in that of `COc1ccc(CCNc2ncnc3cc(N4CCNCC4)c([N+](=O)[O-])cc23)cc1` [Example 78, 4-[2-(4-methoxyphenyl)ethylamino]-6-nitro-7-(piperazin-1-yl)quinazoline], 1100 nM; in that of `COc1ccc(CCNc2ncnc3cc(N4CCNCC4)c([N+](=O)[O-])cc23)cc1OC` [Example 79, 4-[2-(3,4-dimethoxyphenyl)ethylamino]-6-nitro-7-(piperazin-1-yl)quinazoline], 2300 nM.
With `O=[N+]([O-])c1cc2c(NCCc3ccc(O)cc3)ncnc2cc1N1CCNCC1` [Example 80, 4-[2-(4-hydroxyphenyl)ethylamino]-6-nitro-7-(piperazin-1-yl)quinazoline] the figure was 2500 nM.
As to `Nc1ccc(CCNc2ncnc3cc(N4CCNCC4)c([N+](=O)[O-])cc23)cc1` [Example 81, 4-[2-(4-anilino)ethylamino]-6-nitro-7-(piperazin-1-yl)quinazoline], the half-maximal inhibitory concentration (IC50) was determined as 2500 nM.
With `CC(CNc1ncnc2cc(N3CCNCC3)c([N+](=O)[O-])cc12)c1ccccc1` (stereo not drawn) [Example 82, 4-(2-methyl-2-phenylethylamino)-6-nitro-7-(piperazin-1-yl)quinazoline] the figure was 7200 nM; with `O=[N+]([O-])c1cc2c(NC3CCN(Cc4ccccc4)CC3)ncnc2cc1N1CCNCC1` [Example 86, 4-[(1-benzyl-4-piperidyl)amino]-6-nitro-7-(piperazin-1-yl)quinazoline], 6400 nM; with `O=[N+]([O-])c1cc2c(N3CCN(c4ccccc4)CC3)ncnc2cc1N1CCNCC1` [Example 98, 6-nitro-4-(4-phenylpiperazinyl)-7-piperazinylquinazoline], 2100 nM.
In the case of `COc1ccc(N2CCN(c3ncnc4cc(N5CCNCC5)c([N+](=O)[O-])cc34)CC2)cc1` [Example 99, 4-[(4-methoxyphenyl)piperazinyl]-6-nitro-7-piperazinylquinazoline] it was 900 nM.
Consider `O=[N+]([O-])c1cc2c(N3CCN(c4ccc(Cl)cc4)CC3)ncnc2cc1N1CCNCC1` [Example 101, 4-[(4-chlorophenyl)piperazinyl]-6-nitro-7-piperazinylquinazoline], for which the IC50 was 1400 nM.
In the case of `Fc1ccc(CNc2ncnc3cc(N4CCNCC4)c(F)cc23)cc1` [Example 113, 6-fluoro-4-(4-fluorobenzylamino)-7-(piperazin-1-yl)quinazoline] it was 900 nM; in that of `Fc1cc2c(NCc3ccc4c(c3)OCO4)ncnc2cc1N1CCNCC1` [Example 114, 6-fluoro-4-[3,4-(methylenedioxy)benzylamino]-7-(piperazin-1-yl)quinazoline], 600 nM.
As for `Fc1cc2c(Nc3ccc4c(c3)OCO4)ncnc2cc1N1CCNCC1` [Example 116, 6-fluoro-4-[(3,4-methylenedioxy)anilino]-7-(piperazin-1-yl)quinazoline], the IC50 was 3000 nM.
The compound `Fc1ccc(CCNc2ncnc3cc(N4CCNCC4)c(F)cc23)cc1` [Example 117, 6-fluoro-4-[2-[(4-fluoro)phenyl]ethylamino]-7-(piperazin-1-yl)quinazoline] came in with an IC50 of 4700 nM.
`Fc1cc2c(NCCc3ccc4c(c3)OCO4)ncnc2cc1N1CCNCC1` [Example 118, 6-fluoro-4-[2-[(3,4-methylenedioxy)phenyl]ethylamino]-7-(piperazin-1-yl)quinazoline] gave an IC50 of 2200 nM.
In the case of `Fc1ccc(CCCNc2ncnc3cc(N4CCNCC4)c(F)cc23)cc1` [Example 119, 6-fluoro-4-[3-[(4-fluoro)phenyl]propylamino]-7-(piperazin-1-yl)quinazoline] it was 2300 nM.
On to `Fc1cc2c(NCCCc3ccc4c(c3)OCO4)ncnc2cc1N1CCNCC1` [Example 120, 6-fluoro-4-[3-[(3,4-methylenedioxy)phenyl]propylamino]-7-(piperazin-1-yl)quinazoline], for which the IC50 is 2000 nM.
With `Fc1cc2c(NCc3ccc4c(c3)OCCO4)ncnc2cc1N1CCNCC1` [Example 121, 4-[(3,4-ethylenedioxy)benzylamino]-6-fluoro-7-(piperazin-1-yl)quinazoline] the figure was 2500 nM.
As to `CN(Cc1ccc2c(c1)OCO2)c1ncnc2cc(N3CCNCC3)c(F)cc12` [Example 122, 6-fluoro-4-[[N-methyl-N'-(3,4-methylenedioxybenzyl)]amino]-7-(piperazin-1-yl)quinazoline], the IC50 came to 600 nM.
